Consider eight molecules from US20260265304A1, “PEPTIDE INHIBITORS OF FOCAL ADHESION KINASE ACTIVITY AND USES THEREOF” (Arizona Board of Regents on Behalf of the University of …, priority 2019, published 2026).

Data set [1] has as its target T1, FAK FAT domain (biotinylated Avitag-FAT protein) (Homo sapiens, UniProt Q05397).
T1 construct: biotinylated Avitag-FAT protein was diluted in running buffer
T1 sequence (Q05397 914-1045 limits assumed): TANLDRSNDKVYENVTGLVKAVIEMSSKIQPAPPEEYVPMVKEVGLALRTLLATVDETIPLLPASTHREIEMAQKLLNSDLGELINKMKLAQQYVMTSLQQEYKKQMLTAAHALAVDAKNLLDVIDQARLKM
Put plainly: Surface plasmon resonance (SPR) binding to immobilised FAT protein. As to conditions: FAT protein immobilised, peptide 200 μM-0.01 μM, 1:1 binding model. On the procedure: SPR binding studies were performed on a ForteBio Pioneer FE SPR system. In brief, a SADH Streptavidin in Dextran Hydrogel biosensor (ForteBio) was docked onto the flow cell and preconditioned with two injections of 10 mM NaOH, 1 M NaCl for 1 min at 50 μL/min. […] Empty channel 2 served as the reference control. After achieving a stable baseline, a concentration series (200 μM-0.01 μM) of peptide was prepared in final running buffer (100 mM Tris-HCl, 200 mM NaCl, 0.05% Tween-20, 5% DMSO) and injected using the OneStep gradient injection method at a flow rate of 75 μL/min. […] Raw SPR data were appropriately processed in Qdat software (ForteBio) by normalizing the baseline prior to injection, aligning the channels, subtraction of the reference channel, and blank subtraction. Kinetic data were fitted to a pseudo-first order 1:1 interaction binding model using to calculate KD. In addition, a steady-state model and Req data points were used to validate the binding affinity. Visual inspection of the SPR sensograms was performed to verify appropriate model fitting, lack of mass transport effects, return to baseline, and lack of irregular kinetics.
On the technique in general: Surface plasmon resonance follows binding to a sensor surface in real time, without labels.

The test system of data set [2] is SK-MEL-103 melanoma cells. In words: 3D Matrigel-on-top proliferation assay. The class given is cell-based. As to conditions: SK-MEL-103 melanoma cells, 3D Matrigel-on-top. On the procedure:
B. Competition FP experiment with 1907 showing inhibition of TAMRA-LD2 binding to FAT. C. SPR binding and selectivity analysis using WT FAT and Mutant FAT (L994E, 1936A) at the helix-protein interface. D. Flow cytometry analysis of Rhodamine-1907 (10 μM) cellular uptake in MDA-MB-453 breast cancer cells. E. Boyden-chamber invasion assays in SK-MEL-103 melanoma cells. F. 3D Matrigel-on-top proliferation assays in SK-MEL-103 melanoma cells.
B. 3D structure of negative control molecule (UACC-2020). C. 3D Matrigel-on-top cell proliferation data of stapled peptides in SK-MEL-103 melanoma cells.
A negative control myristoylated peptide (2020) was designed and synthesized based on non-active molecule 2014. Experiments were conducted to test the efficacy of these peptides in 3D proliferation assays using SK-MEL-103 melanoma cells. […] Furthermore, 2012 had no effects on the proliferation of normal HUVEC cells (IC50=NA) (FIG. 7).

Data set [3] concerns the target T2, FAK FAT domain (paxillin-FAT binding) (Homo sapiens, UniProt Q05397).
T2 construct: FP Buffer containing 20 μM FAT and 0.1 μM TAMRA-LD2
T2 sequence (Q05397 914-1045 limits assumed): T1 sequence (Q05397 914-1045 limits assumed)
In words: Competition fluorescence polarization (FP) assay, inhibition of TAMRA-LD2 binding to FAT. How it is done: The FP assay buffer used was 20 mM Tris, 200 mM NaCl, 0.05% β-me, 0.1% Triton X-100, 5% glycerol, and 1× Halt protease inhibitor cocktail. […] Bodipy TMR FP optical module (2100-4100) was used as the mirror.
Wells with no FAT were used as a baseline value which was subtracted from the raw values to produce ΔmP values. The plate was read at every hour for four hours to test for time differences in IC50. The titration data was processed through GraphPad Prism to produce a dose response curve and a calculated IC50 with standard error (SE). A four-parameter dose-response inhibition model was utilized and the bottom fit was constrained to the lower plateau of the curve. Ki was determined from the following calculation:
P0 is the concentration of free protein and KD is calculated from the saturation curve. 150 is calculated by the following equation:
where PT is the total protein concentration, LT is the total labeled-ligand concentration, P0 is the positive root of P0^2+(KD+LT)*P0−PT, PL0=P−P0, PL50=PL0/2, L0=LT-PL0, and L50=LT-PL50.
For orientation: Fluorescence polarisation rises when a labelled molecule tumbles more slowly, as on binding a larger partner.

For data set [4], the target named is T1, FAK FAT domain (biotinylated Avitag-FAT protein). In words: Surface plasmon resonance (SPR) binding to immobilised FAT protein. As to conditions: two-site binding model.
Data set [5] has as its target T3, trypsin (Bos taurus, UniProt P00760).
T3 construct: purchased ThermoFisher
T3 sequence (P00760 24-246): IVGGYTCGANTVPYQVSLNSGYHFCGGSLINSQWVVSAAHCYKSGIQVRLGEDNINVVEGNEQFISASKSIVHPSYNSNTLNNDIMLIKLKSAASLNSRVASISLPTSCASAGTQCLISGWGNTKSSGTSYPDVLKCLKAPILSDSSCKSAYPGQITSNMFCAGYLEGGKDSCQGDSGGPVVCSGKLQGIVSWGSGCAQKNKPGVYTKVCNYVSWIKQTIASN
In words: In vitro trypsin digest assay (trypsin-agarose beads, LC-MS). The class given is in vitro ADME. As to conditions: trypsin-agarose beads in physiological buffer, read-out: t1/2 in trypsin digest (protease resistance) (converted). On the procedure:
Assays were performed using trypsin-agarose beads (ThermoFisher) and measurement of peptide concentration using LC-MS. Peptide half-lives were calculated using GraphPad Prism software.
Trypsin-agarose beads were used to test the potential cleavage of peptides in a physiological buffer and LC-MS was used as the analytical method to determine peptide concentration.

Data set [6] deals with T4, biotinylated Avitag-FAT protein (UniProt Q05397 919-1052, limits assumed, biotinylated (Avitag)).
T4 construct: domain: FAT; Immobilised on a streptavidin sensor for SPR; also called WT FAT; FAT domain of FAK; not shown: Avitag
T4 sequence (looked up): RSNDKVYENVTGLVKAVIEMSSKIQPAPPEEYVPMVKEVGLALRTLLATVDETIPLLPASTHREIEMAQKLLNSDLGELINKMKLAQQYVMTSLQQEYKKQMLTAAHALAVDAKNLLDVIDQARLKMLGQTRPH
Put plainly: SPR, biotinylated Avitag-FAT immobilised. How it is done:
SPR binding studies were performed on a ForteBio Pioneer FE SPR system. In brief, a SADH Streptavidin in Dextran Hydrogel biosensor (ForteBio) was docked onto the flow cell and preconditioned with two injections of 10 mM NaOH, 1 M NaCl for 1 min at 50 μL/min. […] Empty channel 2 served as the reference control. After achieving a stable baseline, a concentration series (200 μM-0.01 μM) of peptide was prepared in final running buffer (100 mM Tris-HCl, 200 mM NaCl, 0.05% Tween-20, 5% DMSO) and injected using the OneStep gradient injection method at a flow rate of 75 μL/min. 3% sucrose was utilized as a bulk standard control for OneStep injection and a DMSO calibration curve was performed using a concentration range of 3.5% to 6.5% DMSO. Raw SPR data were appropriately processed in Qdat software (ForteBio) by normalizing the baseline prior to injection, aligning the channels, subtraction of the reference channel, and blank subtraction. Kinetic data were fitted to a pseudo-first order 1:1 interaction binding model using to calculate KD. In addition, a steady-state model and Req data points were used to validate the binding affinity. Visual inspection of the SPR sensograms was performed to verify appropriate model fitting, lack of mass transport effects, return to baseline, and lack of irregular kinetics.

As a reminder, the Kd is the equilibrium constant for the complex coming apart. As a reminder, the Ki is the dissociation constant of the complex between target and ligand, obtained from inhibition or displacement.

Read-outs that look alike come from different tables or passages of the source. Positions of bridges follow the written chain, without caps; N, C: chain ends. Non-standard residues stand in square brackets, D forms with d. Residues, ends and D or L forms follow the SMILES beside them. *: point of attachment. Myristoyl = CCCCCCCCCCCCCC(=O)*; R8 = C=CCCCCCC[C@@](C)(N)C(=O)O; S5 = C=CCCC[C@](C)(N)C(=O)O

Turning to `CCCCCCCCCCCCCC(=O)N[C@@H](CC(N)=O)C(=O)N[C@@H](CC(C)C)C(=O)N[C@]1(C)CCCCCCC=CCCC[C@@](C)(C(=O)N[C@@H](CCC(=O)O)C(=O)N[C@@H](CCC(=O)O)C(=O)N[C@@H](CC(N)=O)C(N)=O)NC(=O)[C@H](CC(C)C)NC(=O)[C@H](CC(C)C)NC(=O)[C@H](CCCNC(=N)N)NC(=O)[C@H](CC(=O)O)NC(=O)[C@H](CCC(=O)O)NC(=O)[C@H](CCC(=O)O)NC1=O` [Peptide 2020, Myristoyl-NLR8EEDRLLS5EEN-NH2] (Myristoyl-NL[R8]EEDRLL[S5]EEN-NH2; staple 3-10), the Kd in data set [1] (read-out: SPR KD) was > 200 µM. Moreover, the “3D proliferation IC50” value in data set [2] is listed as “no effect”. Besides, the Ki in data set [3] (read-out: FP Ki) was > 1250 µM.
For `CC(=O)N[C@@H](CC(N)=O)C(=O)N[C@@H](CC(C)C)C(=O)N[C@]1(C)CCCCCCC=CCCC[C@@](C)(C(=O)N[C@@H](CCC(=O)O)C(=O)N[C@@H](CC(C)C)C(=O)N[C@@H](CC(N)=O)C(N)=O)NC(=O)[C@H](CC(C)C)NC(=O)[C@H](CC(C)C)NC(=O)[C@H](CCCCN)NC(=O)[C@H](CC(=O)O)NC(=O)[C@H](CC(C)C)NC(=O)[C@H](CCC(=O)O)NC1=O` [Peptide 2028, Ac-NLR8ELDKLLS5ELN-NH2] (Ac-NL[R8]ELDKLL[S5]ELN-NH2; staple 3-10), the Kd came out at 1.36 µM in data set [4] (SPR KD (1), site (1)) and 10.9 µM in data set [4] (read-out: SPR KD (2), site (2)).
In the case of `CC(=O)N[C@@H](CC(N)=O)C(=O)N[C@@H](CC(C)C)C(=O)N[C@@H](CO)C(=O)N[C@@H](CCC(=O)O)C(=O)N[C@@H](CC(C)C)C(=O)N[C@@H](CC(=O)O)C(=O)N[C@@H](CCCNC(=N)N)C(=O)N[C@@H](CC(C)C)C(=O)N[C@@H](CC(C)C)C(=O)N[C@@H](CC(C)C)C(=O)N[C@@H](CCC(=O)O)C(=O)N[C@@H](CC(C)C)C(=O)N[C@@H](CC(N)=O)C(N)=O` [Peptide 1967, reference compound], in data set [5], the half-life is 41.4 min.
For `CC(=O)N[C@@H](CC(N)=O)C(=O)N[C@@H](CC(C)C)C(=O)N[C@]1(C)CCCCCCC=CCCC[C@@](C)(C(=O)N[C@@H](CCC(=O)O)C(=O)N[C@@H](CC(C)C)C(=O)N[C@@H](CC(N)=O)C(N)=O)NC(=O)[C@H](CC(C)C)NC(=O)[C@H](CC(C)C)NC(=O)[C@H](C)NC(=O)[C@H](CC(=O)O)NC(=O)[C@H](CC(C)C)NC(=O)[C@H](C)NC1=O` [Peptide 2010, Ac-NLR8ALDALLS5ELN-NH2] (Ac-NL[R8]ALDALL[S5]ELN-NH2; staple 3-10), the Kd in data set [1] (SPR KD) was found to be 12.6 µM. Besides, the Ki in data set [3] stood at 68.5 µM.
Take `CC(C)C[C@@H]1NC(=O)[C@H](CCCNC(=N)N)NC(=O)[C@H](CC(=O)O)NC(=O)[C@H](CC(C)C)NC(=O)[C@](C)(NC(=O)[C@H](CO)NC(=O)[C@H](CC(C)C)NC(=O)[C@@H](N)CC(N)=O)CCCCCCC=CCCC[C@@](C)(C(=O)N[C@@H](CC(C)C)C(=O)N[C@@H](CC(N)=O)C(N)=O)NC(=O)[C@H](CC(N)=O)NC(=O)[C@H](CC(C)C)NC1=O` [Peptide 1906, H-NLSR8LDRLLNS5LN-NH2] (H-NLS[R8]LDRLLN[S5]LN-NH2; staple 4-11): the Kd in data set [1] (read-out: SPR KD) is > 200 µM. The Ki in data set [3] (read-out: FP Ki) is > 1250 µM.

B1: 1920 (peptide)
peptide: Ac-SLGSNL[R8]ELDRLL[S5]ELNAVQH-NH2
modifications: staple 7-14
SMILES: CC(=O)N[C@@H](CO)C(=O)N[C@@H](CC(C)C)C(=O)NCC(=O)N[C@@H](CO)C(=O)N[C@@H](CC(N)=O)C(=O)N[C@@H](CC(C)C)C(=O)N[C@]1(C)CCCCCCC=CCCC[C@@](C)(C(=O)N[C@@H](CCC(=O)O)C(=O)N[C@@H](CC(C)C)C(=O)N[C@@H](CC(N)=O)C(=O)N[C@@H](C)C(=O)N[C@H](C(=O)N[C@@H](CCC(N)=O)C(=O)N[C@@H](Cc2c[nH]cn2)C(N)=O)C(C)C)NC(=O)[C@H](CC(C)C)NC(=O)[C@H](CC(C)C)NC(=O)[C@H](CCCNC(=N)N)NC(=O)[C@H](CC(=O)O)NC(=O)[C@H](CC(C)C)NC(=O)[C@H](CCC(=O)O)NC1=O
As for B1, the Kd in data set [6] came out at 6.95 µM.

B2: 2014 (peptide)
peptide: Ac-NL[R8]EEDRLL[S5]EEN-NH2
modifications: staple 3-10
SMILES: CC(=O)N[C@@H](CC(N)=O)C(=O)N[C@@H](CC(C)C)C(=O)N[C@]1(C)CCCCCCC=CCCC[C@@](C)(C(=O)N[C@@H](CCC(=O)O)C(=O)N[C@@H](CCC(=O)O)C(=O)N[C@@H](CC(N)=O)C(N)=O)NC(=O)[C@H](CC(C)C)NC(=O)[C@H](CC(C)C)NC(=O)[C@H](CCCNC(=N)N)NC(=O)[C@H](CC(=O)O)NC(=O)[C@H](CCC(=O)O)NC(=O)[C@H](CCC(=O)O)NC1=O
notes: non-active molecule
B2: the Kd in data set [6] is > 200 µM.

B3: 2011 (peptide)
peptide: Ac-[R8]ELDRLL[S5]-NH2
modifications: staple 1-8
In the case of B3, the Kd in data set [6] is > 200 µM.
